For two molecules, Ki results are on record in ChEMBL document CHEMBL1133311, “Synthesis and PKC isozyme surrogate binding of indothiolactam-V, a new thioamide analogue of tumor promoting indolactam-V” (Bioorg Med Chem Lett, 2000).

In experiment [1] the target is T1, Protein kinase C alpha type (Homo sapiens, UniProt P17252). The experiment in a line: Displacement of [3H]- PDBu from Protein kinase C alpha C1a domain.
Experiment [2] has as its target T1, Protein kinase C alpha type. In words: Displacement of [3H]- PDBu from Protein kinase C alpha C1b domain. Background: In a radioligand displacement assay an active substance lowers the binding of a labelled ligand.
The target of experiment [3] is T2, Protein kinase C delta type (Homo sapiens, UniProt Q05655). In words: Displacement of [3H]- PDBu from Protein kinase C delta C1a domain.
Experiment [4] concerns the target T3, Protein kinase C eta type (Homo sapiens, UniProt P24723). The experiment in a line: Displacement of [3H]- PDBu from Protein kinase C eta C1a domain.
Experiment [5] addresses T3, Protein kinase C eta type. The experiment in a line: Displacement of [3H]- PDBu from Protein kinase C eta C1b domain.
In experiment [6] the target is T4, Protein kinase C beta type (Homo sapiens, UniProt P05771). In words: Displacement of [3H]- PDBu from Protein kinase C beta C1b domain.
Experiment [7] has as its target T4, Protein kinase C beta type. In words: Displacement of [3H]- PDBu from Protein kinase C beta C1a domain.
Experiment [8] addresses T2, Protein kinase C delta type. The experiment in a line: Displacement of [3H]- PDBu from Protein kinase C delta C1b domain.
In experiment [9] the target is Protein kinase C theta type (Homo sapiens, UniProt Q04759). In words: Displacement of [3H]- PDBu from Protein kinase C theta C1b domain.
For experiment [10], the target named is T5, Protein kinase C gamma type (Homo sapiens, UniProt P05129). In words: Displacement of [3H]- PDBu from Protein kinase C gamma C1a domain.
Experiment [11] concerns the target T5, Protein kinase C gamma type. The experiment in a line: Displacement of [3H]- PDBu from Protein kinase C gamma C1b domain.
Experiment [12] concerns the target T6, Protein kinase C epsilon type (Homo sapiens, UniProt Q02156).
T6 sequence (Q02156 whole entry): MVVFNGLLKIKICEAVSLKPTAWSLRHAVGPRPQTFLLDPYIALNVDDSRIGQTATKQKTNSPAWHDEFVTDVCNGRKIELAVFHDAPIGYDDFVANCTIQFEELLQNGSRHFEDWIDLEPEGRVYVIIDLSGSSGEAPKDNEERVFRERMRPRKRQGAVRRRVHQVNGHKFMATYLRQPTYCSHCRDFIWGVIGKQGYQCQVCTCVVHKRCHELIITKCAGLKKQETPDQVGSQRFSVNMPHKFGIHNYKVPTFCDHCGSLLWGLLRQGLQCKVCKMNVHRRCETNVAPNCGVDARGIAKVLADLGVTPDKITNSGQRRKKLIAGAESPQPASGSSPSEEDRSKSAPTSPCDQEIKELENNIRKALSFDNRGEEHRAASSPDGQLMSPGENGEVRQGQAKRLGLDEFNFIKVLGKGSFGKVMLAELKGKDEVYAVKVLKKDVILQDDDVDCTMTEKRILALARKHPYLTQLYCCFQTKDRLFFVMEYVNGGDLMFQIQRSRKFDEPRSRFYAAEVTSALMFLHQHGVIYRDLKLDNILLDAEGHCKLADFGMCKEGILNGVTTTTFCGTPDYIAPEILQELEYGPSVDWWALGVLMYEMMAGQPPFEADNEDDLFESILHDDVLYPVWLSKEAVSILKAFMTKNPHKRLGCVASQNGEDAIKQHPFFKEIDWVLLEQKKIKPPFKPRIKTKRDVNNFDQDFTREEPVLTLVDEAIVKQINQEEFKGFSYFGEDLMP
The experiment in a line: Displacement of [3H]- PDBu from Protein kinase C epsilon C1a domain.

Experiment [13] addresses T6, Protein kinase C epsilon type. The experiment in a line: Displacement of [3H]- PDBu from Protein kinase C epsilon C1b domain.

T2 sequence (Q05655 whole entry, the tested form may be a part): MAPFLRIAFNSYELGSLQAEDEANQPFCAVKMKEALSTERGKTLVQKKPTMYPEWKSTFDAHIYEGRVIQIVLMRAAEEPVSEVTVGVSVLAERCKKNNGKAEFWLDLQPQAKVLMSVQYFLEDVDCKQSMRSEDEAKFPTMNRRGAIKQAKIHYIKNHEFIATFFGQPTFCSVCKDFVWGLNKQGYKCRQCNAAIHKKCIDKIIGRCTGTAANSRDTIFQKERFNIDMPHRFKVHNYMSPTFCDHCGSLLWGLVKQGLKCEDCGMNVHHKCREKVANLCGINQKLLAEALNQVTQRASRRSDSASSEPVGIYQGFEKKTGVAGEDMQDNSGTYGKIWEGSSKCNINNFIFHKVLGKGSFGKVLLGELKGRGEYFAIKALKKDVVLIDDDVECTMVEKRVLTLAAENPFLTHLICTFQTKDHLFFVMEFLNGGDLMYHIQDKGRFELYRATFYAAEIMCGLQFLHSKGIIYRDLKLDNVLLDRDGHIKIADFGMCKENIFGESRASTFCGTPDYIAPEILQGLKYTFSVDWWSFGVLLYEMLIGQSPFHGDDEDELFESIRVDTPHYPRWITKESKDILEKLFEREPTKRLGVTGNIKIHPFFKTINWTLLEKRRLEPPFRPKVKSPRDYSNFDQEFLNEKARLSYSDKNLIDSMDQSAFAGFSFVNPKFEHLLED
T4 sequence (P05771 whole entry, the tested form may be a part): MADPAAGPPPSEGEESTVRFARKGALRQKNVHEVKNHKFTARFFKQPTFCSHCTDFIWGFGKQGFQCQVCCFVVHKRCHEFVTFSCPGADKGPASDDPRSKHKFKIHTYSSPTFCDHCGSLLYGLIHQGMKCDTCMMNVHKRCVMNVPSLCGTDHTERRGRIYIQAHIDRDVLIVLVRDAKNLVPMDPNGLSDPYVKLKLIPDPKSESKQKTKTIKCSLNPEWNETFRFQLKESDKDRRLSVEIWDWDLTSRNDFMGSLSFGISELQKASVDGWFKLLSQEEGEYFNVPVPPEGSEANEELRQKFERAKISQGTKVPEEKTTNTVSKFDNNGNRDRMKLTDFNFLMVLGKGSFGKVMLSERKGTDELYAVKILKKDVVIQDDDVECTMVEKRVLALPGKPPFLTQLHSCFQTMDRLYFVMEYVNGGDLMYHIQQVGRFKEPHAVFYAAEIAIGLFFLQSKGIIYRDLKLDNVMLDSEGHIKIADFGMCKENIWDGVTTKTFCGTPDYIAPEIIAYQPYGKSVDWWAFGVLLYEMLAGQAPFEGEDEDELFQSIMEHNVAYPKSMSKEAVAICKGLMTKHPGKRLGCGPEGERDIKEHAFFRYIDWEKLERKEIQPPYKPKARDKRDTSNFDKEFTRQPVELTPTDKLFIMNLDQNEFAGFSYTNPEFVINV
T3 sequence (P24723 whole entry, the tested form may be a part): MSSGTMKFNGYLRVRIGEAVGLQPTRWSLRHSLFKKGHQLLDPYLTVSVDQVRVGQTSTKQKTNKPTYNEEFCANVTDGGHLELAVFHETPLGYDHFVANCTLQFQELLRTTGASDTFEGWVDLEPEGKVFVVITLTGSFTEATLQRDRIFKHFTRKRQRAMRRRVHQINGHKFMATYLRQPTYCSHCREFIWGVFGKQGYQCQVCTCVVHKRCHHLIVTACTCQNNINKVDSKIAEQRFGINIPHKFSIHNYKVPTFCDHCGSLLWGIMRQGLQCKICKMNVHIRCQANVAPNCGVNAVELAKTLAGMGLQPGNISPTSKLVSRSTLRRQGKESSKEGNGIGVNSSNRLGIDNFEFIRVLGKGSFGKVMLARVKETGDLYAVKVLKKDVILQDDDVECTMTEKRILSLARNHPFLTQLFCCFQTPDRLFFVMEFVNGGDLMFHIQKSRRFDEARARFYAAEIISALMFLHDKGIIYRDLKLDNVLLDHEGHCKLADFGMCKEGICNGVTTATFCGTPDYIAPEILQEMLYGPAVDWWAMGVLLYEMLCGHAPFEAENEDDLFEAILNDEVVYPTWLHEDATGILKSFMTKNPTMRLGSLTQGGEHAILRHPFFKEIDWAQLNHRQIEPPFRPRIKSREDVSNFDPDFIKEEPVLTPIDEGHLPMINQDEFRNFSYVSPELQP
Protein kinase C theta type, sequence (Q04759 whole entry, the tested form may be a part): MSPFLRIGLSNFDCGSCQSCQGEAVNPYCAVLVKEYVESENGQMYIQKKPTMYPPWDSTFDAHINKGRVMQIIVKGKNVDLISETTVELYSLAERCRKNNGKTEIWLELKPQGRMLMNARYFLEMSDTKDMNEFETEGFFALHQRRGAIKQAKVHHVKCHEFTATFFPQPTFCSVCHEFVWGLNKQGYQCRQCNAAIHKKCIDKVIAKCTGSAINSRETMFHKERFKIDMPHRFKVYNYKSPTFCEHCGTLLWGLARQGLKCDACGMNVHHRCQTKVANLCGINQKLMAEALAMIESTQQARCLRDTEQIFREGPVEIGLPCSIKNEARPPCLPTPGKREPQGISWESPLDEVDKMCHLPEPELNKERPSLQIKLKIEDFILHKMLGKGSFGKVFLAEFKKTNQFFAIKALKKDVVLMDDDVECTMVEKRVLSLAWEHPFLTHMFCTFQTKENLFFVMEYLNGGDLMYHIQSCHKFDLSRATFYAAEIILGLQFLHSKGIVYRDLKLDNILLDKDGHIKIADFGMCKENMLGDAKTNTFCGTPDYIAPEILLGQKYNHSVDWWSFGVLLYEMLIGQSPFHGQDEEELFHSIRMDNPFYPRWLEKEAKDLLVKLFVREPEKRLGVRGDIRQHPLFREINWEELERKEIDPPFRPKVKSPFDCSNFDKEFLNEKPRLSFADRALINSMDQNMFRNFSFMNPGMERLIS

Regarding `CC(C)[C@H]1C(=S)N[C@H](CO)Cc2c[nH]c3cccc(c23)N1C`, the Ki in experiment [1] was found to be 261 nM; in [2] it was 2140 nM; in experiment [3], 2950 nM; in [4], 2160 nM; in experiment [5], 20.6 nM; in [6], 226 nM. Besides, the Ki in experiment [7] came to 180 nM; in experiment [8], 67.5 nM; in experiment [9], 61.6 nM; in [10], 296 nM; in [11] it was 288 nM; in [12] it was 3860 nM. Further, the affinity in experiment [13], expressed as Ki, was 41.5 nM.
Turning to `CC(C)[C@H]1C(=O)N[C@H](CO)Cc2c[nH]c3cccc(c23)N1C` [INDOLACTUM], the Ki in experiment [1] came out at 127 nM; in experiment [2], 4000 nM; in experiment [3], 1900 nM; in [4] it was 3770 nM; in experiment [5], 5.5 nM; in experiment [6], 136 nM. Moreover, the Ki in experiment [7] was 173 nM; in [8], 8.3 nM; in [9], 8.7 nM; in experiment [10], 138 nM; in [11], 213 nM; in [12], 4110 nM. Also, in experiment [13], the affinity corresponds to a Ki of 7.7 nM.

What is called Ki is a dissociation constant, usually derived from enzyme kinetics or from competition with a known ligand. Low values mean higher affinity, high ones lower affinity.
